In the experiment the test system is RS4;11 cells. Description: RS4;11 cell viability assay (CellTiter Glo).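 Further: acute lymphoblastic leukemia line RS4,11, EC50 derived from percentage of viable cells after treatment relative to untreated controls, cell killing taken as a measure of Bcl-2 inhibition.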 Type of experiment: cell-based, human. The following applies: Homo sapiens, RS4-11, 48 h, 50,000 cells per well, 10% human serum, 48 hours; read-out: RS4; 11 EC50 Values. (ATP-based viability assays read luminescence as a measure of living cells.)
Method: The acute lymphoblastic leukemia (ALL) cell line RS4;11 was used as the primary human cell line to assess the cellular activity of Bcl-2 selective agents in vitro and their efficacy in vivo.
Cell cytotoxicity EC50 values were assessed using CellTiter Glo (Promega) according to the manufacturer's recommendations. The EC50 values were determined as a percentage of viable cells following treatment compared to the untreated control cells.
For the compound `CC1(C)CCC(CN2CCN(c3ccc(C(=O)NS(=O)(=O)c4ccc(NCC5CCCN(S(C)(=O)=O)C5)c([N+](=O)[O-])c4)c(Oc4cnc5[nH]ccc5c4)c3)CC2)=C(c2ccc(Cl)cc2)C1` (stereo not drawn) [Example 147, 4-(4-{[2-(4-chlorophenyl)-4,4-dimethylcyclohex-1-en-1-yl]methyl}piperazin-1-yl)-N-{[4-({[1-(methylsulfonyl)piperidin-3-yl]methyl}amino)-3-nitrophenyl]sulfonyl}-2-(1H-pyrrolo[2,3-b]pyridin-5-yloxy)benzamide], the EC50 was found to be 26.2 nM.

In the case of `CC1(C)CCC(CN2CCN(c3ccc(C(=O)NS(=O)(=O)c4ccc(OCC5COCCN5)c([N+](=O)[O-])c4)c(Oc4cnc5[nH]ccc5c4)c3)CC2)=C(c2ccc(Cl)cc2)C1` (stereo not drawn) [Example 78, 4-(4-{[2-(4-chlorophenyl)-4,4-dimethylcyclohex-1-en-1-yl]methyl}piperazin-1-yl)-N-{[4-(morpholin-3-ylmethoxy)-3-nitrophenyl]sulfonyl}-2-(1H-pyrrolo[2,3-b]pyridin-5-yloxy)benzamide], the EC50 was found to be 12.5 nM.

For the compound `CC1(C)CCC(CN2CCN(c3ccc(C(=O)NS(=O)(=O)c4ccc(OCC5(F)CCN(C6COC6)CC5)c([N+](=O)[O-])c4)c(Oc4cnc5[nH]ccc5c4)c3)CC2)=C(c2ccc(Cl)cc2)C1` [Example 167, 4-(4-{[2-(4-chlorophenyl)-4,4-dimethylcyclohex-1-en-1-yl]methyl}piperazin-1-yl)-N-({4-[(4-fluoro-1-oxetan-3-ylpiperidin-4-yl)methoxy]-3-nitrophenyl}sulfonyl)-2-(1H-pyrrolo[2,3-b]pyridin-5-yloxy)benzamide], the EC50 turned out to be 0.93 nM.

Regarding `CC1(C)CCC(CN2CCN(c3ccc(C(=O)NS(=O)(=O)c4ccc(N[C@@H]5CCN(C6CCOC(C)(C)C6)C5)c([N+](=O)[O-])c4)c(Oc4cnc5[nH]ccc5c4)c3)CC2)=C(c2ccc(Cl)cc2)C1` (stereo partly drawn) [Example 131, 4-(4-{[2-(4-chlorophenyl)-4,4-dimethylcyclohex-1-en-1-yl]methyl}piperazin-1-yl)-N-[(4-{[(3R)-1-(2,2-dimethyltetrahydro-2H-pyran-4-yl)pyrrolidin-3-yl]amino}-3-nitrophenyl)sulfonyl]-2-(1H-pyrrolo[2,3-b]pyridin-5-yloxy)benzamide], the EC50 came to 12.7 nM.

As to `CN(C)CC(=O)N1CCO[C@H](CNc2ccc(S(=O)(=O)NC(=O)c3ccc(N4CCN(CC5=C(c6ccc(Cl)cc6)CC(C)(C)CC5)CC4)cc3Oc3cnc4[nH]ccc4c3)cc2[N+](=O)[O-])C1` [Example 258, 4-(4-{[2-(4-chlorophenyl)-4,4-dimethylcyclohex-1-en-1-yl]methyl}piperazin-1-yl)-N-{[4-({[(2R)-4-(N,N-dimethylglycyl)morpholin-2-yl]methyl}amino)-3-nitrophenyl]sulfonyl}-2-(1H-pyrrolo[2,3-b]pyridin-5-yloxy)benzamide], the EC50 turned out to be 0.553 nM.

In the case of `CC1(C)CCC(CN2CCN(c3ccc(C(=O)NS(=O)(=O)c4ccc(OCC5(F)CCOCC5)c(Cl)c4)c(Oc4cnc5[nH]ccc5c4)c3)CC2)=C(c2ccc(Cl)cc2)C1` [Example 286, N-({3-chloro-4-[(4-fluorotetrahydro-2H-pyran-4-yl)methoxy]phenyl}sulfonyl)-4-(4-{[2-(4-chlorophenyl)-4,4-dimethylcyclohex-1-en-1-yl]methyl}piperazin-1-yl)-2-(1H-pyrrolo[2,3-b]pyridin-5-yloxy)benzamide], the EC50 stood at 34.5 nM.

In the case of `CC1(C)CCC(CN2CCN(c3ccc(C(=O)NS(=O)(=O)c4ccc(NCC5CN(C6COC6)C5)c([N+](=O)[O-])c4)c(Oc4cnc5[nH]ccc5c4)c3)CC2)=C(c2ccc(Cl)cc2)C1` [Example 162, 4-(4-{[2-(4-chlorophenyl)-4,4-dimethylcyclohex-1-en-1-yl]methyl}piperazin-1-yl)-N-[(3-nitro-4-{[(1-oxetan-3-ylazetidin-3-yl)methyl]amino}phenyl)sulfonyl]-2-(1H-pyrrolo[2,3-b]pyridin-5-yloxy)benzamide], the EC50 was 13 nM.

As for `CC1(C)CC(c2ccc(Cl)cc2)=C(CN2CCN(c3ccc(C(=O)NS(=O)(=O)c4ccc(N[C@H]5CC[C@@H](N6CCOCC6)CC5)c([N+](=O)[O-])c4)c(Oc4cnc5[nH]ccc5c4)c3)CC2)CO1` [Example 63, Cis-4-(4-{[4-(4-chlorophenyl)-6,6-dimethyl-5,6-dihydro-2H-pyran-3-yl]methyl}piperazin-1-yl)-N-({4-[(4-morpholin-4-ylcyclohexyl)amino]-3-nitrophenyl}sulfonyl)-2-(1H-pyrrolo[2,3-b]pyridin-5-yloxy)benzamide], the EC50 was determined as 7.51 nM.

As for `CC1(C)CCC(CN2CCN(c3ccc(C(=O)NS(=O)(=O)c4ccc(NCC5CN(CC#N)CCO5)c([N+](=O)[O-])c4)c(Oc4cnc5[nH]ccc5c4)c3)CC2)=C(c2ccc(Cl)cc2)C1` (stereo not drawn) [Example 214, 4-(4-{[2-(4-chlorophenyl)-4,4-dimethylcyclohex-1-en-1-yl]methyl}piperazin-1-yl)-N-{[4-({[4-(cyanomethyl)morpholin-2-yl]methyl}amino)-3-nitrophenyl]sulfonyl}-2-(1H-pyrrolo[2,3-b]pyridin-5-yloxy)benzamide], the EC50 stood at 4.38 nM.

For `CC1(C)CCC(CN2CCN(c3ccc(C(=O)NS(=O)(=O)c4ccc(NCC5CN(S(C)(=O)=O)CCO5)c([N+](=O)[O-])c4)c(Oc4cnc5[nH]ccc5c4)c3)CC2)=C(c2ccc(Cl)cc2)C1` (stereo not drawn) [Example 319, 4-(4-{[2-(4-chlorophenyl)-4,4-dimethylcyclohex-1-en-1-yl]methyl}piperazin-1-yl)-N-{[4-({[4-(methylsulfonyl)morpholin-2-yl]methyl}amino)-3-nitrophenyl]sulfonyl}-2-(1H-pyrrolo[2,3-b]pyridin-5-yloxy)benzamide], the EC50 was 4.5 nM.

`CC1(C)CCC(CN2CCN(c3ccc(C(=O)NS(=O)(=O)c4cnc(OC[C@@H]5CCN(C(CF)CF)C5)c(Cl)c4)c(Oc4cnc5[nH]ccc5c4)c3)CC2)=C(c2ccc(Cl)cc2)C1` [Example 280, N-[(5-chloro-6-{[(3R)-1-(1,3-difluoropropan-2-yl)pyrrolidin-3-yl]methoxy}pyridin-3-yl)sulfonyl]-4-(4-{[2-(4-chlorophenyl)-4,4-dimethylcyclohex-1-en-1-yl]methyl}piperazin-1-yl)-2-(1H-pyrrolo[2,3-b]pyridin-5-yloxy)benzamide]: the EC50 is 459 nM.

As for `CN(C)CC(=O)N1CCC(COc2ncc(S(=O)(=O)NC(=O)c3ccc(N4CCN(CC5=C(c6ccc(Cl)cc6)CC(C)(C)CC5)CC4)cc3Oc3cnc4[nH]ccc4c3)cc2Cl)CC1` [Example 260, N-[(5-chloro-6-{[1-(N,N-dimethylglycyl)piperidin-4-yl]methoxy}pyridin-3-yl)sulfonyl]-4-(4-{[2-(4-chlorophenyl)-4,4-dimethylcyclohex-1-en-1-yl]methyl}piperazin-1-yl)-2-(1H-pyrrolo[2,3-b]pyridin-5-yloxy)benzamide], the EC50 came out at 5.43 nM.

As for `CC1(C)CCC(CN2CCN(c3ccc(C(=O)NS(=O)(=O)c4ccc(N[C@@H]5CCN(C(CF)CF)C5)c(S(=O)(=O)C(F)(F)F)c4)c(Oc4cnc5[nH]ccc5c4)c3)CC2)=C(c2ccc(Cl)cc2)C1` [Example 225, 4-(4-{[2-(4-chlorophenyl)-4,4-dimethylcyclohex-1-en-1-yl]methyl}piperazin-1-yl)-N-[(4-{[(3R)-1-(1,3-difluoropropan-2-yl)pyrrolidin-3-yl]amino}-3-[(trifluoromethyl)sulfonyl]phenyl)sulfonyl]-2-(1H-pyrrolo[2,3-b]pyridin-5-yloxy)benzamide], the EC50 was 560 nM.

`CO[C@H]1CC[C@H](CNc2ccc(S(=O)(=O)NC(=O)c3ccc(N4CCN(CC5=C(c6ccc(Cl)cc6)CCC6(CCCC6)C5)CC4)cc3Oc3cnc4[nH]ccc4c3)cc2[N+](=O)[O-])CC1` [Example 74, Trans-4-(4-{[8-(4-chlorophenyl)spiro[4.5]dec-7-en-7-yl]methyl}piperazin-1-yl)-N-[(4-{[(4-methoxycyclohexyl)methyl]amino}-3-nitrophenyl)sulfonyl]-2-(1H-pyrrolo[2,3-b]pyridin-5-yloxy)benzamide]: the EC50 turned out to be 57 nM.

For the compound `CC1(C)CCC(CN2CCN(c3ccc(C(=O)NS(=O)(=O)c4ccc(N[C@@H]5CCN(C6COC6)C5)c([N+](=O)[O-])c4)c(Oc4cnc5[nH]ccc5c4)c3)CC2)=C(c2ccc(Cl)cc2)C1` [Example 224, 4-(4-{[2-(4-chlorophenyl)-4,4-dimethylcyclohex-1-en-1-yl]methyl}piperazin-1-yl)-N-[(3-nitro-4-{[(3R)-1-(oxetan-3-yl)pyrrolidin-3-yl]amino}phenyl)sulfonyl]-2-(1H-pyrrolo[2,3-b]pyridin-5-yloxy)benzamide], the EC50 was found to be 13.9 nM.

For the compound `CC(C)N1CCC2(CCC(c3ccc(Cl)cc3)=C(CN3CCN(c4ccc(C(=O)NS(=O)(=O)c5cnc(OCC6CCOCC6)c(Cl)c5)c(Oc5cnc6[nH]ccc6c5)c4)CC3)C2)CC1` [Example 268, 4-(4-{[9-(4-chlorophenyl)-3-isopropyl-3-azaspiro[5.5]undec-8-en-8-yl]methyl}piperazin-1-yl)-N-{[5-chloro-6-(tetrahydro-2H-pyran-4-ylmethoxy)pyridin-3-yl]sulfonyl}-2-(1H-pyrrolo[2,3-b]pyridin-5-yloxy)benzamide], the EC50 came to 48.8 nM.

`CC1(C)CCC(CN2CCN(c3ccc(C(=O)NS(=O)(=O)c4ccc(OCC5(F)CCN(C6CCOCC6)CC5)c([N+](=O)[O-])c4)c(Oc4cnc5[nH]ccc5c4)c3)CC2)=C(c2ccc(Cl)cc2)C1` [Example 192, 4-(4-{[2-(4-chlorophenyl)-4,4-dimethylcyclohex-1-en-1-yl]methyl}piperazin-1-yl)-N-({4-[(4-fluoro-1-tetrahydro-2H-pyran-4-ylpiperidin-4-yl)methoxy]-3-nitrophenyl}sulfonyl)-2-(1H-pyrrolo[2,3-b]pyridin-5-yloxy)benzamide]: the EC50 came to 2.41 nM.

In the case of `CN(C)CC(=O)N1CCC(COc2ccc(S(=O)(=O)NC(=O)c3ccc(N4CCN(CC5=C(c6ccc(Cl)cc6)CC(C)(C)CC5)CC4)cc3Oc3cnc4[nH]ccc4c3)cc2Cl)CC1` [Example 295, N-[(3-chloro-4-{[1-(N,N-dimethylglycyl)piperidin-4-yl]methoxy}phenyl)sulfonyl]-4-(4-{[2-(4-chlorophenyl)-4,4-dimethylcyclohex-1-en-1-yl]methyl}piperazin-1-yl)-2-(1H-pyrrolo[2,3-b]pyridin-5-yloxy)benzamide], the EC50 came out at 14.8 nM.
